Reference: patent US6982251B2, “Substituted 2-azetidinones useful as hypocholesterolemic agents” (Schering Corporation, priority 2000, dated 2006)

Assays:
[1] = test system: human jejunum microsomes; test: Incubation with human jejunum microsomes supplemented with UDPGA; assay type: in vitro ADME; conditions: No hydrolysis; after 2 hr incubation of human jejunum microsomes with 50 μM Compound 6A + UDPGA
[2] = test system: Hyperlipidemic Hamster; test: In Vivo Assay of Hypolipidemic Agents Using the Hyperlipidemic Hamster; conditions: oral gavage once daily, 7 days, percent change versus control; for % Reduction in Plasma Cholesterol: cholesterol diet, negative = lowering; for % Reduction in Cholesterol Esters: hepatic cholesterol esters
Description: In Vivo Assay of Hypolipidemic Agents Using the Hyperlipidemic Hamster
Hamsters are separated into groups of six and given a controlled cholesterol diet (Purina Chow #5001 containing 0.5% cholesterol) for seven days. Diet consumption is monitored to determine dietary cholesterol exposure in the presence of test compounds. The animals are dosed with the test compound once daily beginning with the initiation of diet. Dosing is by oral gavage of 0.2 mL of corn oil alone (control group) or solution (or suspension) of test compound in corn oil. All animals moribund or in poor physical condition are euthanized. After seven days, the animals are anesthetized by IM injection of ketamine and sacrificed by decapitation. Blood is collected into Vacutainer™ tubes containing EDTA for plasma total cholesterol and triglyceride analysis and the liver excised for free and esterified cholesterol and triglyceride tissue analysis. Data is reported as percent reduction of plasma cholesterol and hepatic cholesterol esters versus control levels.
Data is reported as percent change (i.e., percent reduction in plasma cholesterol and in hepatic cholesterol esters) versus control, therefore, negative numbers indicate a positive cholesterol-lowering effect.

[3] = test system: β-Glucuronidase; test: β-Glucuronidase hydrolysis of the glucuronide mixture obtained from jejunum microsomes; assay type: in vitro ADME; conditions: for Outcome of β-glucuronidase hydrolysis: after hydrolyzing for 18 h

## O=C1[C@H](CC[C@H](O)c2ccc(F)cc2)[C@@H](c2ccc(O)cc2)N1c1ccc(F)cc1 [Compound 6A, ezetimibe]
[1]
  % of Compound 6A: 32.06%
[2]; dose 1 mg/kg
  % Reduction in Plasma Cholesterol: −59%
  % Reduction in Cholesterol Esters: −95%
[3]; Control: 180 min, No microsomes, No UDPGA
  % of Compound 6A: 72.92%
[3]; hydrolysis time 5 min
  % of Compound 6A: 68.10%
[3]; hydrolysis time 10 min
  % of Compound 6A: 61.88%
[3]; hydrolysis time 20 min
  % of Compound 6A: 66.02%
[3]; hydrolysis time 30 min
  % of Compound 6A: 80.14%
[3]; hydrolysis time 180 min
  % of Compound 6A: 84.67%

## O=C(O)C1OC(O[C@@H](CCC2C(=O)N(c3ccc(F)cc3)C2c2ccc(O)cc2)c2ccc(F)cc2)[C@H](O)[C@@H](O)[C@@H]1O (some centres unmarked) [Compound III]
[1]
  % of Compound III (Benzylic Glucuronide): 32.14%
[3]
  Outcome of β-glucuronidase hydrolysis: hydrolyzed to form a single Compound 6A peak
[3]; hydrolysis time 5 min
  % of Compound III (Benzylic Glucuronide): 19.30%
[3]; hydrolysis time 10 min
  % of Compound III (Benzylic Glucuronide): 18.58%
[3]; hydrolysis time 20 min
  % of Compound III (Benzylic Glucuronide): 15.12%
[3]; hydrolysis time 30 min
  % of Compound III (Benzylic Glucuronide): 11.22%
[3]; hydrolysis time 180 min
  % of Compound III (Benzylic Glucuronide): 6.5%

## O=C(O)[C@H]1O[C@@H](Oc2ccc([C@@H]3[C@@H](CC[C@H](O)c4ccc(F)cc4)C(=O)N3c3ccc(F)cc3)cc2)[C@H](O)[C@@H](O)[C@@H]1O [Example 1]
[1]
  % of Example 1 (Phenolic Glucuronide): 31.68%
[2]; dose 3 mg/kg
  % Reduction in Plasma Cholesterol: −58%
  % Reduction in Cholesterol Esters: −95%
[3]; 5, 10, 20, 30 and 180 min
  Relative rate of β-glucuronidase hydrolysis: hydrolyzed at a faster rate than Compound III
[3]
  Outcome of β-glucuronidase hydrolysis: hydrolyzed to form a single Compound 6A peak
[3]; hydrolysis time 5 min
  % of Example 1 (Phenolic Glucuronide): 2.23%
[3]; hydrolysis time 10 min
  % of Example 1 (Phenolic Glucuronide): 1.04%
[3]; hydrolysis time 20 min
  % of Example 1 (Phenolic Glucuronide): 0.77%
[3]; hydrolysis time 30 min
  % of Example 1 (Phenolic Glucuronide): 0%
[3]; hydrolysis time 180 min
  % of Example 1 (Phenolic Glucuronide): 0%
